The assay has as its target T1, wild-type FLT3 receptor (Homo sapiens, UniProt P36888).
T1 construct: host or cells: Baf3 (murine B cell lymphoma line), stably transfected
T1 sequence (P36888 27-993): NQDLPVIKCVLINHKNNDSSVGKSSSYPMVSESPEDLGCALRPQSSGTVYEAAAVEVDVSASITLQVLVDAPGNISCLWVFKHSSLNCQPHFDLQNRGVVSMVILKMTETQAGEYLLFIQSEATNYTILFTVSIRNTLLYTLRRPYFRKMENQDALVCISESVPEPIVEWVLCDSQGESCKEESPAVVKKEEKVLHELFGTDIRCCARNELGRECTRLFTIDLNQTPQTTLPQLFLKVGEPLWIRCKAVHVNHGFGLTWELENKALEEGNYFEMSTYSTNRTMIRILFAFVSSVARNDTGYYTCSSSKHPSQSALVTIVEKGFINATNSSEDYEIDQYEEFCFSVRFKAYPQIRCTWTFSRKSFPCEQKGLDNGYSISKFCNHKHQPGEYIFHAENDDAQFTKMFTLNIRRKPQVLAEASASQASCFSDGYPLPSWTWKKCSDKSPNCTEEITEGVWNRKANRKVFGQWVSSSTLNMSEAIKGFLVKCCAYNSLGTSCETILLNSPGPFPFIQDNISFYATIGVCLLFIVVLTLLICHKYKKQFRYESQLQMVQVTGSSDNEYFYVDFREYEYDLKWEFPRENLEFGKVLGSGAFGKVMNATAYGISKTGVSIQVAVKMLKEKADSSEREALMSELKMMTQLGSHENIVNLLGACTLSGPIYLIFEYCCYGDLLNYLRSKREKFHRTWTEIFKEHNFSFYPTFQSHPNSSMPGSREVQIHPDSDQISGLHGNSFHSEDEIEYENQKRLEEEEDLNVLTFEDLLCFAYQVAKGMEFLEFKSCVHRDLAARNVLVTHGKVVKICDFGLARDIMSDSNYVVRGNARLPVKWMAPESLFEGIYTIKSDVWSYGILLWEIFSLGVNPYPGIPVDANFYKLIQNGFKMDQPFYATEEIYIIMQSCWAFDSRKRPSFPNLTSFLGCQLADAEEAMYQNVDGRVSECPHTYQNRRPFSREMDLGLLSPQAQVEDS
In words: Cell-based FLT3 receptor ELISA (FLT ligand-induced phosphorylation in Baf3 FLT3 cells). The note with it: 100 ng/mL Flt ligand, uncertainty ±20%. Summed up:
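Receptor phosphotyrosine measured by sandwich ELISA (anti-FLT3 capture, HRP anti-pTyr, luminescence) in FLT3-transfected murine Baf3 cells given 1 h compound pretreatment and 10 min 100 ng/mL FLT ligand after overnight low-serum starvation; triplicates, IC50 from nonlinear regression.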

pIC50: −log10 of the molar value.

As a reminder, the pIC50 is the negative decadic logarithm of the IC50, by convention in mol/L. Low readings indicate a large IC50, high ones a small IC50. Compound `O=C(Nc1ccc(N2CCCC2)cc1)N1CCC(c2ncnc3cc(N4CCNC4=O)ccc23)CC1` [Compound 178, 4-[7-(2-Oxo-imidazolidin-1-yl)-quinazolin-4-yl]-piperidine-1-carboxylic acid (4-pyrrolidin-1-yl-phenyl)-amide] showed a pIC50 of 8.40.

With `O=C(Nc1ccc(N2CCCC2)cc1)N1CCC(c2ncnc3cc(N4CCCC4)ccc23)CC1` [Compound 179, 4-(7-Pyrrolidin-1-yl-quinazolin-4-yl)-piperidine-1-carboxylic acid (4-pyrrolidin-1-yl-phenyl)-amide], the pIC50 is 7.31.

As for `O=C(Nc1ccc(N2CCCC2)cc1)N1CCC(c2ncnc3cc(-n4ccnc4)ccc23)CC1` [Compound 180, 4-(7-Imidazol-1-yl-quinazolin-4-yl)-piperidine-1-carboxylic acid (4-pyrrolidin-1-yl-phenyl)-amide], the pIC50 is 8.00.

The compound `O=C(Nc1ccc(N2CCCC2)cc1)N1CCC(c2ncnc3cc(N4CCOCC4)ccc23)CC1` [Compound 181, 4-(7-Morpholin-4-yl-quinazolin-4-yl)-piperidine-1-carboxylic acid (4-pyrrolidin-1-yl-phenyl)-amide] gave a pIC50 of 8.30.

Regarding `O=C(Nc1ccc(N2CCCC2)cc1)N1CCC(c2ncnc3cc(N4CCSCC4)ccc23)CC1` [Compound 182, 4-(7-Thiomorpholin-4-yl-quinazolin-4-yl)-piperidine-1-carboxylic acid (4-pyrrolidin-1-yl-phenyl)-amide], the pIC50 was 7.62.

For the compound `O=C1CN(c2ccc3c(C4CCN(C(=O)Nc5ccc(N6CCCC6)cc5)CC4)ncnc3c2)CCN1` [Compound 183, 4-[7-(3-Oxo-piperazin-1-yl)-quinazolin-4-yl]-piperidine-1-carboxylic acid (4-pyrrolidin-1-yl-phenyl)-amide], the pIC50 is 7.51.

`CN1CCN(c2ccc3c(C4CCN(C(=O)Nc5ccc(N6CCCC6)cc5)CC4)ncnc3c2)CC1=O` [Compound 184, 4-[7-(4-Methyl-3-oxo-piperazin-1-yl)-quinazolin-4-yl]-piperidine-1-carboxylic acid (4-pyrrolidin-1-yl-phenyl)-amide]: the pIC50 was 7.01.

Regarding `O=C(Nc1ccc(N2CCCC2)cc1)N1CCC(c2ncnc3cc(N4CCN(CCO)CC4)ccc23)CC1` [Compound 185, 4-{7-[4-(2-Hydroxy-ethyl)-piperazin-1-yl]-quinazolin-4-yl}-piperidine-1-carboxylic acid (4-pyrrolidin-1-yl-phenyl)-amide], the pIC50 is 9.00.

On to `COCCN1CCN(c2ccc3c(C4CCN(C(=O)Nc5ccc(N6CCCC6)cc5)CC4)ncnc3c2)CC1` [Compound 186, 4-{7-[4-(2-Methoxy-ethyl)-piperazin-1-yl]-quinazolin-4-yl}-piperidine-1-carboxylic acid (4-pyrrolidin-1-yl-phenyl)-amide], for which the pIC50 was 8.52.

With `CCN1CCN(c2ccc3c(C4CCN(C(=O)Nc5ccc(N6CCCC6)cc5)CC4)ncnc3c2)CC1` [Compound 187, 4-[7-(4-Ethyl-piperazin-1-yl)-quinazolin-4-yl]-piperidine-1-carboxylic acid (4-pyrrolidin-1-yl-phenyl)-amide], the pIC50 is 7.92.

For the compound `O=C(Nc1ccc(N2CCCC2)cc1)N1CCC(c2ncnc3cc(OCC4CCOCC4)ccc23)CC1` [Compound 188, 4-[7-(Tetrahydro-pyran-4-ylmethoxy)-quinazolin-4-yl]-piperidine-1-carboxylic acid (4-pyrrolidin-1-yl-phenyl)-amide], the pIC50 was 7.03.

In turn, `O=C(Nc1ccc(N2CCCC2)cc1)N1CCC(c2ncnc3cc(OC4CCOCC4)ccc23)CC1` [Compound 189, 4-[7-(Tetrahydro-pyran-4-yloxy)-quinazolin-4-yl]-piperidine-1-carboxylic acid (4-pyrrolidin-1-yl-phenyl)-amide] gave a pIC50 of 6.98.

In turn, `O=C(Nc1ccc(N2CCCC2)cc1)N1CCC(c2ncnc3cc(O[C@H]4CCOC4)ccc23)CC1` [Compound 190, (S)-4-[7-(Tetrahydro-furan-3-yloxy)-quinazolin-4-yl]-piperidine-1-carboxylic acid (4-pyrrolidin-1-yl-phenyl)-amide] had a pIC50 of 6.96.
